For assay [1] the following is noted: cited from earlier work.
Assay [2] has as its system subjects with type 2 diabetes and nephropathy. Briefly: Example 3: Phase 2b randomized, double-blind, placebo-controlled 8-week study with thoracic bioimpedance. It counts as in vivo, human. The conditions noted are these: dose of 0.5 mg. The text has this: This study also included measurement of thoracic bioimpedance to assess the potential for thoracic fluid retention with atrasentan.
An equal percentage of subjects in all 3 groups experienced an adverse event (81.3%). […] (Table 17).
A mean decrease of 4 ohms in thoracic bioimpedance, as measured by the ZOE® Fluid Status Monitor, is considered clinically indicative of thoracic fluid overload. Mean thoracic bioimpedance fluctuated in all treatment groups over time, with greater mean changes in the 2 atrasentan groups than in the placebo group.

In the next assay the test system is ob-ZSF1 rats. Briefly: Example 5: preclinical study of hypotensive synergy, mean arterial pressure. It counts as in vivo, rat. The conditions noted are these: 10 mg/kg/day for 12 weeks. The source says:
In the example, a preclinical animal model is used to evaluate whether atrasentan and an ARB cause a synergistic hypotensive effect.

We go through 3 compounds from patent US9855245B2, “Methods for improving lipid profiles using atrasentan” (AbbVie Inc., priority 2013, dated 2018).

Where a name gives a salt, the structure may show the parent alone. Read-outs that look alike come from different tables or passages of the source. Non-standard residues stand in square brackets, D forms with d. Residues, ends and D or L forms follow the SMILES beside them.

Take `CC(C)C[C@@H]1NC(=O)[C@@H](C(C)C)NC(=O)[C@@H]2CCCN2C(=O)[C@@H](CC(=O)O)NC(=O)[C@@H](Cc2c[nH]c3ccccc23)NC1=O` [BQ-123] (cyclo(L[dW][dD]P[dV])): the “mean arterial pressure, mean area under curve +/− SEM” value in assay [1] (BQ-123 alone) is given as −2.3 mmHg; in assay [1] (BQ-123 plus enalapril), −5.1 mmHg.
With `CCCCN(CCCC)C(=O)CN1C[C@H](c2ccc3c(c2)OCO3)[C@@H](C(=O)O)[C@@H]1c1ccc(OC)cc1` [atrasentan HCl], the “reduction in UACR” value in assay [2] is on record as “not demonstrated to result in a statistically significant reduction in UACR”.
Consider `CCCCc1nc(Cl)c(CO)n1Cc1ccc(-c2ccccc2-c2nn[nH]n2)cc1` [losartan, reference compound], for which the “mean arterial pressure (MAP)” value in the assay on ob-ZSF1 rats is on record as “significant decrease”.
